In paper PMC12645137 (Current Neuropharmacology, 2025):

Columns and labels:
DPPH antioxidant assay = type: physicochemical; settings: for % Inhibition (DPPH free radicals): mean ± SEM
Method: To evaluate the in-vitro antioxidant potential of the synthesized derivatives, a previously reported 1,1 Diphenyl, 2 Picrylhydrazyl (DPPH) assay was utilized. The DPPH solution was prepared by dissolving twenty-four mg DPPH in methanol (100 ml). Test sample solutions in various concentrations (62.50 to 1000 μg/mL) were also prepared. From each dilution, 1 ml sample solution was taken to which 1 ml solution of DPPH was added. The solution mixture was incubated at 23°C for 30 minutes in the dark and then subjected to a UV-visible spectrophotometer to note the absorbance at 517 nm. The absorbance values of all samples were taken in triplicate. Ascorbic acid served as positive control, while negative control only contained a solution of DPPH having no test samples. The % free radical scavenging potential of our compounds was determined by the given formula.
% free radical scavenging activity = [drawing 2] x100
X is the control absorbance, whereas X1 is the absorbance of the test sample.

[1] = target: T1, BChE (source equine serum) (Equus caballus, UniProt P81908); test: biochemical; settings: for inhibition at 62.5 µg/mL / inhibition at 125 µg/mL / inhibition at 250 µg/mL / inhibition at 500 µg/mL / inhibition at 1000 µg/mL: read-out: % BChE Inhibition
T1 construct: from tissue; host or cells: equine serum
T1 sequence (P81908 whole entry): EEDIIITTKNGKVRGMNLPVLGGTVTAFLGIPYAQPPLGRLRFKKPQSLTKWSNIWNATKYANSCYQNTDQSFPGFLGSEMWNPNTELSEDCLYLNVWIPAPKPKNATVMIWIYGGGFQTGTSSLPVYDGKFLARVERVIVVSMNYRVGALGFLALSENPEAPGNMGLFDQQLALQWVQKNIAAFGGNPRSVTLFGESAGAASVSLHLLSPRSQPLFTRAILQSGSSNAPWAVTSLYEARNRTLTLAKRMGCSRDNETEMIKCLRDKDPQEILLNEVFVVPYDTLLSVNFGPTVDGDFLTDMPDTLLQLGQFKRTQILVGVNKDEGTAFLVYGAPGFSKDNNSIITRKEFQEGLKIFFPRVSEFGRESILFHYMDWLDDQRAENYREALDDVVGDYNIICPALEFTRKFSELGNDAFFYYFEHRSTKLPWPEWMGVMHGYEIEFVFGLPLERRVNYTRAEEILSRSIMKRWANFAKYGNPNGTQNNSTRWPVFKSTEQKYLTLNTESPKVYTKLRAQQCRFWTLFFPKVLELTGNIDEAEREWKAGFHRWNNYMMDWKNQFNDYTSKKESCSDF
Method: (§1) The cholinesterase inhibitory potentials of our synthesized compounds were evaluated against cholinesterase enzymes (AChE/BChE). The AChE (source Electric eel) and BChE (source equine serum) were used in the study following previously published Ellman's assay. The assay basic principle involves the hydrolytic breakdown of acetylthiocholine iodide (ATChI) by AChE and butyryl thiocholine iodide (BTChI) by BChE enzymes, leading to the formation of an intermediate compound which is subsequently complexed with 5,5-dithio bis nitrobenzoic acid (DTNB) to form a UV-detectable compound. The yellowish color product indicates the hydrolysis of ATChI and BTChI substrates by respective enzymes, which were analyzed at 412 nm using a UV-visible spectrophotometer. […] A test sample of 1000 µl was taken in a cuvette, to which enzyme solution (50 µl) and DTNB reagent of 50 µL were added. The AChE (0.03 U/ml) and BChE (0.01 U/ml) solutions were prepared in 0.1 M phosphate buffer having pH 8.0. The ATChI and BTChI substrate solutions (0.0005 M) and 0.0002273 M solution of DTNB were prepared using distilled water and stored at 8°C before further use. For 15 minutes, the solution mixture was incubated at 30 °C, after which a solution of the substrate (50 µl) was added and then subjected to spectroscopic analysis. Using a double beam spectrophotometer, the sample absorbance was measured for 4 minutes at 412 nm beside the time of reaction. […] All values were taken in triplicate under the same conditions.
(§2) Enzymatic activity percentage=V/Vmaxx100
(§3) V is the reaction rate in the inhibitor's presence, whereas Vmax is the reaction rate in the absence of the inhibitor.

[2] = target: T2, AChE (source Electric eel) (Electrophorus electricus, UniProt O42275); test: biochemical; settings: for inhibition at 62.5 µg/mL / inhibition at 125 µg/mL / inhibition at 250 µg/mL / inhibition at 500 µg/mL / inhibition at 1000 µg/mL: read-out: % AChE Inhibition
T2 construct: from tissue
T2 sequence (O42275 24-633): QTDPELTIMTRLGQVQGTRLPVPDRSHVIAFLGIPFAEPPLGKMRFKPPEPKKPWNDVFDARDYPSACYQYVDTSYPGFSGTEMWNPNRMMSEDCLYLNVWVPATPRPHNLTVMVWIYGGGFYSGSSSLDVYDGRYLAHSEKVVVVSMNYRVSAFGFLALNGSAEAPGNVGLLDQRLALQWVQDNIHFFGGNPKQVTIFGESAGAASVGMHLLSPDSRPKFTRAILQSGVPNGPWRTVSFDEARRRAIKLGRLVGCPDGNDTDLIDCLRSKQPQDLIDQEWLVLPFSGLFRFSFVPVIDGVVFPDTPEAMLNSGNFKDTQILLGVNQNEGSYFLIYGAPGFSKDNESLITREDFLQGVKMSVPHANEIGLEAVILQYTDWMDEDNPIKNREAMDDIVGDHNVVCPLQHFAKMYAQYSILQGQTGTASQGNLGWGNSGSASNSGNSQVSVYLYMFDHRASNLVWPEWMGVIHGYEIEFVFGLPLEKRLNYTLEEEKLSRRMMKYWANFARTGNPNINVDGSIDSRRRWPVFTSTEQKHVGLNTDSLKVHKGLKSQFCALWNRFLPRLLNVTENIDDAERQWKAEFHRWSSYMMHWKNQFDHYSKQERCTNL
Method: as §1, §2, §3

[3] = system: scopolamine-induced amnesic mice; test: Y-Maze test in scopolamine-induced amnesic animals; type: in vivo, albino mice; settings: scopolamine 1 mg/kg amnesic mice; i.p.; AN-1 10 mg/kg, progesterone 10 mg/kg, galantamine 8 mg/kg; disease group 22.27%
Method: (§4) The mice were divided into the following five groups, and each group had six animals. The standard drug and test samples were carefully administered to the mice via the intraperitoneal route.
(§5) Group IV (Progesterone treated group) = Animals treated with 10 mg/kg progesterone and scopolamine 1 mg/kg.
(§6) Group V (Test compound group) = Animals received 10 mg/kg progesterone derivative (AN-1) and 1 mg/kg scopolamine.
To determine the effect of synthesized compounds on short-term learning and memory of experimental mice, a Y-Maze test was used. The Y-Maze apparatus consists of three arms that are fixed at 120° angle from each other and have 30 cm length, 20 cm height, and 8 cm width dimensions. After 30 minutes of giving test compounds intraperitoneally, the mouse was positioned at the arm end in such a way that it faced away from the midpoint of the apparatus and was permitted to search the apparatus for five minutes freely. The arm entry sequence and number by each mouse were recorded for 5 minutes using a digital camera. Alternation is defined as the successive entry into 3 dissimilar arms by a mouse (i.e., CBA, BCA, ABC). When the back paws of a mouse were found inside an arm wholly, the arm entry was considered completed. Seventy percent v/v ethanol was used for cleaning the apparatus and to avoid smell cues. The spontaneous alternation performance (SAP) percentage was calculated using the following formula [37]:
% alternation = [(alternations number) / (total arm entries number – 2)] × 100

[4] = system: scopolamine-induced amnesic mice; test: Elevated Plus Maze (EPM) test in scopolamine-induced amnesic animals; type: in vivo, albino mice; settings: scopolamine 1 mg/kg amnesic mice, i.p., AN-1 10 mg/kg, progesterone 10 mg/kg, galantamine 8 mg/kg; for retention transfer latency (RTL): 24 h after training, disease group 67 sec; for initial transfer latency (ITL): disease group 73 sec
Method: as §4, §5, §6
The EPM behavioral test was performed to assess the learning abilities and long-term spatial memory of the experimental animals. The EPM apparatus has the appearance of a plus sign which was 50 cm elevated from the ground. The apparatus has two open arms (50 cm long and 10 cm wide), and two closed arms having dimensions of 20, 50, and 10 cm in height, length, and width, respectively. The open and closed arms were joined with a 10 × 10 central square.
After 30 minutes of the intraperitoneal drug administration on the seventh day of treatment, mice of each group were placed over the open arm end of the EPM apparatus in such a way that their faces were away from the midpoint of the apparatus. Transfer latency (TL) is the time a mouse takes to enter the closed arm entirely with all its legs from the open arm of the apparatus. The time of initial transfer latency (ITL) was observed, and then the animals were allowed freely for 1.5 minutes to search the EPM apparatus.
After twenty-four hours of the training period, test trials were conducted to determine the retention of tasks that were learnt during training. Retention transfer latency (RTL) was measured by placing the experimental mice at the open end of the apparatus, ensuring that they faced away from its midpoint. The mouse was allowed to enter the closed arm entirely with all its legs. A decline in TL compared to ITL indicated an improvement in memory.

[5] = system: scopolamine-induced amnesic mice; test: Open field test (OFT) in scopolamine-induced amnesic animals; type: in vivo, albino mice; settings: i.p., AN-1 10 mg/kg, progesterone 10 mg/kg, galantamine 8 mg/kg; for number of lines crossed: 5 min, disease group 26.33; for number of lines crossed / time spent in the central area: scopolamine 1 mg/kg amnesic mice; for time spent in the central area: 30 min exploration, disease group 4.66; for time spent in the peripheral area: versus scopolamine/disease group
Method: as §4, §5, §6
Open field behavioral test was carried out for the assessment of locomotor activities like the number of line crossing. The apparatus was made from plywood having 81×81×28.5 cm dimensions. Sixteen squares (20×20 cm) were made on the base of the apparatus by drawing four horizontal and four vertical lines. […] Furthermore, exploration time spent by mice in central and peripheral areas of the apparatus was also recorded by allowing the mice for 30 minutes to explore the apparatus.

Row | SMILES | IC50 (DPPH antioxidant assay) [µM] | % Inhibition (DPPH free radicals) (DPPH antioxidant assay; 62.5 µg/ml) [%] | % Inhibition (DPPH free radicals) (DPPH antioxidant assay; 125 µg/ml) [%] | % Inhibition (DPPH free radicals) (DPPH antioxidant assay; 250 µg/ml) [%] | % Inhibition (DPPH free radicals) (DPPH antioxidant assay; 500 µg/ml) [%] | % Inhibition (DPPH free radicals) (DPPH antioxidant assay; 1000 µg/ml) [%] | IC50 [1] [µM] | inhibition at 62.5 µg/mL [1] [%] | inhibition at 125 µg/mL [1] [%] | inhibition at 250 µg/mL [1] [%] | inhibition at 500 µg/mL [1] [%] | inhibition at 1000 µg/mL [1] [%] | IC50 [2] [µM] | inhibition at 62.5 µg/mL [2] [%] | inhibition at 125 µg/mL [2] [%] | inhibition at 250 µg/mL [2] [%] | inhibition at 500 µg/mL [2] [%] | inhibition at 1000 µg/mL [2] [%] | other results
1 | C/C(=N/Cc1ccc(Cl)cc1)[C@H]1CC[C@H]2[C@@H]3CCC4=CC(=O)CC[C@]4(C)[C@H]3CC[C@]12C [AN4, (8S,9S,10R,13S,14S,17S)-17-((Z)-1-((4-chlorobenzyl)imino)ethyl)-10,13-dimethyl-1,2,6,7,8,9,10,11,12,13,14,15,16,17-tetradecahydro-3H-cyclopenta [a]phenanthren-3-one] | 188 | 46.88 ± 0.65 | 55.52 ± 3.43 | 60.69 ± 1.92 | 66.80 ± 3.47 | 69.87 ± 2.81 | 149 | 49.5 | 56.9 | 63.1 | 64.7 | 76.3 ± 1.56 | 213 | 47 | 52.7 | 60.3 | 67.7 | 70 ± 2.26 | 
2 | CC(=O)[C@H]1CC[C@H]2[C@@H]3CCC4=CC(=O)CC[C@]4(C)[C@H]3CC[C@]12C [progesterone] |  |  |  |  |  |  |  |  |  |  |  |  |  |  |  |  |  |  | spontaneous alternation [3]: 40.001%; retention transfer latency (RTL) [4]: 50.33 s; initial transfer latency (ITL) [4]: 56.5 s; number of lines crossed [5]: 42; time spent in the central area [5]: 9.66 mint; time spent in the peripheral area [5]: significant (p˂0.05) decline in time spent peripherally
3 | C/C(=N/Cc1ccc(C)cc1)[C@H]1CC[C@H]2[C@@H]3CCC4=CC(=O)CC[C@]4(C)[C@H]3CC[C@]12C [AN2, (8S,9S,10R,13S,14S)-17-((Z)-1-((4-methylbenzyl)imino)ethyl)-10,13-dimethyl-1,2,6,7,8,9,10,11,12,13,14,15,16,17-tetradecahydro-3H-cyc-lopenta[a]phenanthren-3-one] | 62.5 | 55.65 ± 2.44 | 57.44 ± 2.47 | 65.77 ± 3.32 | 66.26 ± 1.60 | 71.47 ± 1.83 | 138 | 50.8 | 52.9 | 74.1 | 72 | 77.5 ± 1.29 | 173 | 48.3 | 57.4 | 64.3 | 75.7 ± 1.26 | 75.7 ± 2.82 | 
4 | COc1ccc2c3c1O[C@H]1C[C@@H](O)C=C[C@@]31CCN(C)C2 [Galantamine, reference compound] |  |  |  |  |  |  |  | 67.2 | 72.9 | 77.4 | 84.4 | 89.5 ± 1.93 |  |  |  |  |  |  | spontaneous alternation [3]: 47.56%; retention transfer latency (RTL) [4]: 38.33 s; initial transfer latency (ITL) [4]: 47.33 s; number of lines crossed [5]: 50.33; time spent in the central area [5]: 13 mint; time spent in the peripheral area [5]: significantly (p<0.01) less time in the peripheral area
5 | O=C1O[C@H]([C@@H](O)CO)C(O)=C1O [Ascorbic Acid, Ascorbic acid, reference compound] | 54.1 | 67.69 ± 2.18 | 71.25 ± 4.29 | 74.50 ± 3.04 | 86.00 ± 0.70 | 91.17 ± 1.62 |  |  |  |  |  |  |  |  |  |  |  |  | 
6 | COc1ccc(C/N=C(/C)[C@H]2CC[C@H]3[C@@H]4CCC5=CC(=O)CC[C@]5(C)[C@H]4CC[C@]23C)cc1OC [AN3, (8S,9S,10R,13S,14S,17S)-17-((Z)-1-((3,4-dimethoxybenzyl)imino)ethyl)-10,13-dimethyl-1,2,6,7,8,9,10,11,12,13,14,15,16,17-tetradecahydro-3H-cyclo-penta[a]phenanthren-3-one] | 86.4 | 54.18 ± 2.16 | 56.86 ± 2.33 | 61.18 ± 2.23 | 66.44 ± 2.58 | 72.32 ± 1.37 | 112 | 55.5 | 59.9 | 64.3 | 81.8 | 87.9 ± 1.96 | 133 | 50.7 | 62.9 | 64.6 | 78.2 | 82.8 ± 2.02 | 
7 | C/C(=N/Cc1ccccc1)[C@H]1CC[C@H]2[C@@H]3CCC4=CC(=O)CC[C@]4(C)[C@H]3CC[C@]12C [AN5, (8S,9S,10R,13S,14S)-17-((Z)-1-(benzylimino)ethyl)-10,13-dimethyl-1,2,6,7,8,9,10,11, 12,13,14,15,16,17-tetradecahydro-3H cyclopenta[a]phenan-thren-3-one] | 110 | 52.18 ± 1.42 | 56.99 ± 2.50 | 65.46 ± 1.83 | 67.51 ± 2.56 | 73.12 ± 1.04 | 63 | 58.1 | 65.9 | 71.4 | 75.8 | 85.5 ± 2.83 | 156 | 50.4 | 59.7 | 65.2 | 77.3 | 83.5 ± 2.31 | 
